Measured values as given in PubChem BioAssay (NCI).
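How tested: cells in 96-well plates exposed to compound for 48 hours at five concentrations. Abbreviation: GI50, concentration required for 50% inhibition of growth. TGI: total growth inhibition.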

Columns and labels:
Experiment in all cases: NCI anticancer screen, dose series, 48 h
T-47D breast = tested on: T-47D breast
HS 578T breast = tested on: HS 578T breast
BT-549 breast = tested on: BT-549 breast
KM12 colon = tested on: KM12 colon
IGROV1 ovarian = tested on: IGROV1 ovarian
A498 renal = tested on: A498 renal
OVCAR-3 ovarian = tested on: OVCAR-3 ovarian
SK-MEL-2 melanoma = tested on: SK-MEL-2 melanoma
OVCAR-5 ovarian = tested on: OVCAR-5 ovarian
RPMI-8226 leukemia = tested on: RPMI-8226 leukemia

SMILES	TGI (T-47D breast) [µM]	TGI (HS 578T breast) [µM]	TGI (BT-549 breast) [µM]	TGI (KM12 colon) [µM]	TGI (IGROV1 ovarian) [µM]	TGI (A498 renal) [µM]	TGI (OVCAR-3 ovarian) [µM]	TGI (SK-MEL-2 melanoma) [µM]	TGI (OVCAR-5 ovarian) [µM]	TGI (RPMI-8226 leukemia) [µM]	GI50 (T-47D breast) [µM]	GI50 (HS 578T breast) [µM]	GI50 (BT-549 breast) [µM]	GI50 (KM12 colon) [µM]	GI50 (IGROV1 ovarian) [µM]	GI50 (A498 renal) [µM]	GI50 (OVCAR-3 ovarian) [µM]	GI50 (SK-MEL-2 melanoma) [µM]	GI50 (OVCAR-5 ovarian) [µM]	GI50 (RPMI-8226 leukemia) [µM]
CCOC(=O)C(NC(=O)c1ccccc1)(N1CCN(c2cc3c(cc2F)c(=O)c(C(=O)O)cn3CC)CC1)C(F)(F)F (stereo not given)	88.6	> 100	> 100	81.3	> 100	65.2	> 100	> 100	45.3	69	–	–	–	–	–	–	–	–	–	–
COc1ccccc1NC(=O)CC(=O)N1N=C(N2c3ccccc3Sc3ccccc32)CC1c1ccccc1 (stereo not given)	> 100	> 100	> 100	> 100	> 100	> 100	> 100	> 100	> 100	> 100	–	–	–	–	–	–	–	–	–	–
Cc1cc(S(=O)(=O)Nc2nc3ccccc3nc2-c2ccc(Cl)cc2)c(S)cc1Cl	32.8	73	50.6	35.4	24.9	30.7	29.9	29.2	33.8	68.5	–	–	–	–	–	–	–	–	–	–
COC1=CC2(CC(OC)=C1OC)OC21COc2ccccc2C1=O (stereo not given)	> 100	> 100	> 100	> 100	> 100	> 100	> 100	> 100	> 100	> 100	–	–	–	–	–	–	–	–	–	–
C=CCN(CCNS(=O)(=O)c1ccc(C)cc1)S(=O)(=O)c1ccc(C)cc1	> 100	> 100	61	> 100	> 100	26.8	> 100	94.3	> 100	73.5	–	–	–	–	–	–	–	–	–	–
O=C(N/N=C\c1ccc(N(CCCl)CCCl)cc1[N+](=O)[O-])c1cccnc1	> 100	> 100	> 100	> 100	> 100	> 100	> 100	> 100	> 100	> 100	> 100	> 100	> 100	> 100	> 100	> 100	> 100	> 100	> 100	> 100
COc1ccc(N=NC(=O)NC(CC(C)C)C(N)=O)cc1 (stereo not given)	> 100	> 100	> 100	> 100	> 100	> 31.6	> 100	> 100	> 100	> 100	–	–	–	–	–	–	–	–	–	–
NCC(O)CNC(=O)c1ccc(-c2ccc(-c3ccc(C(=O)NCC(O)CN)cc3)o2)cc1 (stereo not given)	92.6	59.7	88.5	> 100	> 100	73.5	46.5	> 100	> 100	> 100	–	–	–	–	–	–	–	–	–	–
CCCCCCCCCCCC[C@@H](O)[C@H]1CCC([C@H](O)CCCCC(=O)CCCCCCCC2=C[C@H](C)OC2=O)O1 (stereo not given in full)	> 50	> 32.8	> 50	> 50	> 50	> 50	> 50	> 50	> 50	> 50	–	–	–	–	–	–	–	–	–	–
Cc1ccc(C(=O)Nc2ccc(CP(=O)(O)O)cc2CP(=O)(O)O)cc1NC(=O)Nc1cc(C(=O)Nc2ccc(CP(=O)(O)O)cc2CP(=O)(O)O)ccc1C	> 100	> 100	> 100	> 100	> 100	> 100	> 100	> 100	> 100	> 100	–	–	–	–	–	–	–	–	–	–
Cc1c(N=Nc2ccccc2)c(C)n(C2OC(CO)C(O)C(O)C2O)c(=S)c1C#N (stereo not given)	95.8	> 100	45.8	> 100	> 100	72.5	62.9	90.2	81.5	> 100	–	–	–	–	–	–	–	–	–	–
CC(=O)Oc1ccc2c(c1)CC[C@@H]1C2[C@@H](O[N+](=O)[O-])C[C@@]2(C)C1CC[C@@H]2O[N+](=O)[O-] (stereo not given in full)	26.8	47.7	33.8	33.4	30.7	32.8	28.5	31.5	33.7	31	–	–	–	–	–	–	–	–	–	–
CC(C)=CCC/C(C)=C/COc1c2ccoc2cc2oc(=O)ccc12	> 100	> 100	> 100	> 100	> 100	68.2	57.6	38.3	75.8	42.1	–	–	–	–	–	–	–	–	–	–
COc1ccc(C2C(C#N)=C(S)N(C3OC(COC(C)=O)C(OC(C)=O)C(OC(C)=O)C3OC(C)=O)C(c3ccccc3)=C2C(C)=O)cc1 (stereo not given)	80.1	> 100	> 100	> 100	> 100	> 100	> 100	> 100	> 100	> 100	–	–	–	–	–	–	–	–	–	–
COC(=O)c1ccc(C)cc1CC1Cc2ccc(C)cc2C1=O (stereo not given)	63	48.9	52.6	22.1	> 100	9.19	25.3	30.6	92.4	36.5	–	–	–	–	–	–	–	–	–	–
Cc1sc2c(c1C)/C(=N\O)c1cccn1-2	> 100	46	> 100	> 100	> 100	75.9	> 100	> 100	> 100	> 100	–	–	–	–	–	–	–	–	–	–

SMILES	TGI (T-47D breast) [µM]	TGI (HS 578T breast) [µM]	TGI (BT-549 breast) [µM]	TGI (KM12 colon) [µM]	TGI (IGROV1 ovarian) [µM]	TGI (A498 renal) [µM]	TGI (OVCAR-3 ovarian) [µM]	TGI (SK-MEL-2 melanoma) [µM]	TGI (OVCAR-5 ovarian) [µM]	TGI (RPMI-8226 leukemia) [µM]	GI50 (T-47D breast) [µM]	GI50 (HS 578T breast) [µM]	GI50 (BT-549 breast) [µM]	GI50 (KM12 colon) [µM]	GI50 (IGROV1 ovarian) [µM]	GI50 (A498 renal) [µM]	GI50 (OVCAR-3 ovarian) [µM]	GI50 (SK-MEL-2 melanoma) [µM]	GI50 (OVCAR-5 ovarian) [µM]	GI50 (RPMI-8226 leukemia) [µM]
O=C(/C=C/c1cccc(Oc2ccccc2)c1)NCc1ccc(C(=O)NCCc2ccccc2)cc1	> 100	> 100	> 100	> 100	> 100	> 100	> 100	> 100	> 100	> 100	–	–	–	–	–	–	–	–	–	–
C=C(C)COC1CCCCO1 (stereo not given)	> 100	> 100	> 100	> 100	> 100	> 100	> 100	> 100	> 100	> 100	–	–	–	–	–	–	–	–	–	–
Cc1cc(S(=O)(=O)Nc2nnc3cnc4ccccc4n23)c(S)cc1Cl	> 100	> 100	> 100	> 100	> 100	> 100	> 100	> 100	> 100	> 100	–	–	–	–	–	–	–	–	–	–
COc1cc(OC)cc(-c2n/c(=C\c3c(O)[nH]c4ccc(OC)cc34)cc3c2=Nc2ccccc2-3)c1	75.8	47.7	4.7	6.21	68.4	34	9.67	37.3	> 100	72.7	24.6	16.1	2.19	2.58	25.2	14.8	3.45	20.8	70.2	8.88
NC1=Nc2cc(Cl)ccc2Sc2nc3ccccc3n21	> 100	> 100	> 100	> 100	> 100	> 100	> 100	> 100	> 100	> 100	–	–	–	–	–	–	–	–	–	–
O=C1C(Cl)=C(N(C(=O)c2ccccc2)C(=O)c2ccccc2)C(=O)c2ccccc21	32.3	98	21.7	15.7	> 100	> 100	22.9	43.9	34.3	8.87	–	–	–	–	–	–	–	–	–	–
CN(C)c1ccc(/C=C(\NC(=O)c2ccccc2)C2=NC(CCC(=O)O)C(=O)O2)cc1 (stereo not given)	> 50	> 50	> 50	> 50	> 50	> 50	> 50	> 50	> 50	> 50	–	–	–	–	–	–	–	–	–	–
C[C@@H]1C(=O)C[C@H]2C(C)(C)CCC[C@]2(C)[C@@]1(O)CCc1ccoc1	> 100	> 100	> 100	> 100	> 100	> 100	> 100	> 100	> 100	> 100	–	–	–	–	–	–	–	–	–	–
Nc1nc(Cl)cc(NC2(CO)CCC2)n1	> 100	> 100	> 100	> 100	> 100	> 100	> 100	> 100	> 100	> 100	–	–	–	–	–	–	–	–	–	–
COC(=O)c1c(O)ccc2[nH]c3c(O)c4ccccc4cc3c12	36.6	72.8	> 100	38.8	43.5	> 100	31.6	55	> 100	44.7	–	–	–	–	–	–	–	–	–	–
CCCCCCCCCCCCCCC(O)C[N+](C)(CCO)CCO (stereo not given)	30.6	7.87	10.8	4.23	3.14	22.6	12.1	27.5	7.92	5.52	–	–	–	–	–	–	–	–	–	–
Cc1oc2c(c1C)S(=O)(=O)C(C#N)=C(N(C)C)N2	> 100	> 100	> 100	> 100	> 100	> 100	> 100	> 100	> 100	> 100	–	–	–	–	–	–	–	–	–	–
Cn1cc(-c2ccc3cc(-c4ccc(CC(=O)Nc5cc(C(C)(C)C)on5)cc4)cnc3c2)cn1	> 100	15.2	31.8	11.2	3.52	2.26	12.7	12.4	18.9	> 100	2.68	0.397	2.08	0.07	0.356	0.269	2.49	0.922	4.4	2.34
Clc1ccc(-c2cn3c(nc4ccccc43)c(/C=C/c3ccco3)n2)cc1	> 100	61.8	> 100	> 100	> 100	96.3	> 100	41.6	> 100	39.8	–	–	–	–	–	–	–	–	–	–
O=C(N=c1ccc2nc(=O)[nH]n(O)c-2c1)C(F)(F)F	> 100	> 100	> 100	> 100	> 100	> 100	> 100	> 100	> 100	> 100	–	–	–	–	–	–	–	–	–	–
COc1cc2c(c(O)c1OC)CC1CCC(=O)N1C2c1cccc2ccccc12 (stereo not given)	48.4	69.3	41.6	55.4	59.3	68.8	44.6	34.9	38.2	> 100	–	–	–	–	–	–	–	–	–	–
